In brackets after ≈: the same amount, converted by molar mass.
What was measured:
[1] = In vitro dissolution of the prepared solid dispersion (USP apparatus II); type: physicochemical; settings: simulated intestinal fluid pH 6.8, 37° C.
Protocol: An in vitro dissolution study of the pure drug and the vinpocetin-PVP-VA64 inclusion complex (equivalent to 5 mg VPN) was performed in triplicate, using the United States Pharmacopeia (USP) dissolution test apparatus II paddle type, DT 700 LH device, Erweka GmbH DT 700 (Heusenstamm, Germany) at 37° C. for 2 h, with a stirring rate of 50 rpm, in 900 mL of enzyme-free simulated intestinal fluid (pH 6.8). Aliquots were collected at 5, 10, 15, 20, 25, 30, 45, 60, 90 and 120 min, with immediate replacement of an equal volume of fluid, and the collected samples were filtered through a 0.22 μm pore-size Millipore filter and assayed for drug content using high performance liquid chromatography (HPLC). From the dissolution profile curve constructed, DP5min, DP30min and DP120min, the percent of drug dissolved within 5, 30 and 120 minutes, respectively, were estimated. Also, the dissolution efficiency within 10 and 120 minutes, (DE10min) and (DE120min), respectively and, the mean dissolution time were calculated. For each formulation, the dissolution efficiency was determined as the percent ratio of area under the dissolution profile curve up to the time, t, to that of the area of the rectangle described by 100% dissolution at the same time.

[2] = Equilibrium saturation solubility and solubilization efficiency; type: physicochemical; settings: distilled water, thermodynamic from solid; pure drug, water at 25° C.; read-out: solubility of VPN in water
Protocol: To study the effects of the prepared solid dispersions on the solubility of VPN, the equilibrium solubility was determined as previously reported. (Ahmed et al. Pharm Dev Technol. 2011; 16 (5):497-510). An excess amount of either pure drug or the prepared solid dispersions were added to screw-capped vials containing 10 mL of distilled water. The vials were placed in a thermostatically controlled shaking water bath (Model 1031; GFL Corporation. Burgwedel, Germany) at 25±0.5° C. for 48 h. […] Aliquots withdrawn were filtered through a 0.22 μm pore-size Millipore filter and assayed for drug content using high performance liquid chromatography (HPLC) method Ding et al. Asian J Pharm Sci. 2015; 10:114-120. doi:10.1016/j.ajps.2014.08.008), with slight modifications. An isocratic HPLC method was performed using Agilent 1200 series equipped with UV diode array detector. A reversed phase C18 analytical column (4×250 mm, 5 μm; Thermo Fischer Scientific) was used. The mobile phase was composed of a mixture of methanol and 0.05 ammonium acetate buffer of pH 5.5, 80:20 (v/v). The flow rate of the mobile phase was 1 mL/min, the injection volume was 20 μL and the detection wave length was 273 nm. […]
The solubility of vinpocetine, in the prepared solid dispersions, was compared to the intrinsic drug solubility and the resulting ratios of solubilization efficiency (solubility enhancement) were calculated. […]

[3] = weak basic drug; cited from earlier work
[4] = background statement; cited from earlier work
[5] = Phase solubility study and thermodynamic parameter of solubility in aqueous PVP-VA64 solution; type: physicochemical
Protocol: An excess amount of pure VPN was added separately into screw-capped vials containing 10 mL of aqueous polyvinyl pyrrolidone vinyl acetate (PVP-VA64) solution (0-10% w/v). The vials were sealed and shaken in a water bath at 37° C. for 72 h. Aliquots (n=3) from each vial were filtered through a 0.22 μm pore-size Millipore filter, and the filtrates were assayed by HPLC. The change in the solubility of VPN resulting from the addition of different PVP-VA-64 concentrations was used to construct a phase-solubility plot and to evaluate the stoichiometry and the stability constant of complexation (Kst), which exemplifies the strength of the interaction and stability of the complex formed.
Calculation of the apparent stability constant, Kst, was achieved from the phase solubility diagram according to the equation described by Higuchi and Connors (Adv Anal Chem Instrum. 1965; 4:117-210), based on the assumption that 1:1 complex was initially formed.
[formula] In the equation, “So” represents the drug solubility in the absence of the studied polymer (the intercept of the phase solubility diagram constructed).
To evaluate the solubilizing efficiency of the studied polymer for the drug, the complexation efficiency (CE) was determined. It was calculated according to the following equation: CE=So K1:1=slope/(1-slope).
The Gibbs free energy (ΔG°tr) for the transfer of VPN from pure water to aqueous solutions of PVP-VA-64 was calculated using the following equation: ΔG°tr=−2.303 RT Log (Sc/So) where Sc/So is the ratio of the molar drug solubility in an aqueous solution of PVP-VA-64 to that of pure water. R is the gas rate constant ([…]) and T is the temperature in Kelvin at which the study was conducted. The Gibbs free energy can also be referred to as the thermodynamic potential that is minimized when a system reaches chemical equilibrium from an initial state to a final state at constant pressure and temperature. Dissolution of the Prepared Solid Dispersion

## CCOC(=O)C1=C[C@]2(CC)CCCN3CCc4c(n1c1ccccc41)[C@@H]32 [Vinpocetine]
[1]
  DE120, dissolution efficiency within 120 minutes: 18.67±3.73%
  DE10min, dissolution efficiency within 10 minutes: 0.428±0.159%
[1]; 50 rpm
  DP5min, percent of drug dissolved within 5 minutes: 5.62±2.45%
  DP30min, percent of drug dissolved within 30 minutes: 16.46±3.58%
  DP120min, percent of drug dissolved within 120 minutes: 22.41±6.04%
[2]
  solubility at 48 h: 2.31 µg/mL (≈ 6.59 µM)
[3]
  pKa: 7.31
[4]
  elimination half-life: 1 to 2 h
  first pass metabolism (metabolism in liver): 75%
[5]; 1% polymeric solution (PVP-VA-64)
  ΔG°tr: -1.144722 kcal/mol
[5]; 2% polymeric solution (PVP-VA-64)
  ΔG°tr: -1.513035 kcal/mol
[5]; 3% polymeric solution (PVP-VA-64)
  ΔG°tr: -1.766491 kcal/mol
[5]; 4% polymeric solution (PVP-VA-64)
  ΔG°tr: -2.010924 kcal/mol
[5]; 5% polymeric solution (PVP-VA-64)
  ΔG°tr: -2.097426 kcal/mol
[5]; 6% polymeric solution (PVP-VA-64)
  ΔG°tr: -2.189169 kcal/mol
[5]; 7% polymeric solution (PVP-VA-64)
  ΔG°tr: -2.315229 kcal/mol
[5]; 8% polymeric solution (PVP-VA-64)
  ΔG°tr: -2.413399 kcal/mol
[5]; 9% polymeric solution (PVP-VA-64)
  ΔG°tr: -2.456587 kcal/mol
[5]; 10% polymeric solution (PVP-VA-64)
  ΔG°tr: -2.547512 kcal/mol
[5]; VPN with PVP-VA-64
  type of complexation (phase solubility profile): AP-type complexation
[5]; VPN with PVP-VA-64, 37° C.
  complexation efficiency CE: 0.0014
[5]; VPN with PVP-VA-64, 37° C., 1:1 complex assumed
  stability constant Kst: 7 mL/mg
